Data as given in PMC4434416, “Purification and biochemical characterization of a newly produced yellow laccase from Lentinus squarrosulus MR13” (3 Biotech, 2014).

Test system: yellow laccase
Conditions: 35 °C; pH of the kinetic assay not stated; printed ABTS range 40–600 mM

For `CCn1c(=NN=c2sc3cc(S(=O)(=O)O)ccc3n2CC)sc2cc(S(=O)(=O)O)ccc21` [ABTS, 2,2′-Azinobis-(3-ethylbenzothiazoline-6-sulfonic acid)], the Km was 71.4 µM.
